Reference: patent publication EP4745138A1, “THIO-GLUTARIMIDO ISOINDOLINONE DERIVATIVE, BIFUNCTIONAL PROTEIN DEGRADER CONTAINING SAME, AND USES THEREOF” (Gluetacs Therapeutics (Shanghai) Co., Ltd., priority 2023, dated 2025)
Where two headings read alike, the source gives them in different places.

Experiments:
[1] = test system: SW620; assay: Tumor cell proliferation inhibition (CellTiter-Meiluncell Luminescent Cell Viability Assay); format: cell-based; settings: Homo sapiens, 96 hours; for inhibition at 0.01 µM: SW-620, 10 nM, read-out: Inhibition Rate at 10 nM (%); for inhibition at 0.5 µM: SW-620, 500 nM, read-out: Inhibition Rate at 500 nM (%)
Experimental: (§1) The tumor cells used herein were cultured in a cell culture medium listed in table 3 at 37°C in an incubator with 5% CO2. Prior to experimentation, all cell lines used were correctly identified by STR profiling, and tested negative for mycoplasma contamination using a mycoplasma detection kit through routine screenings. Table 3. Tumor cells and cell culture medium used in the present disclosure
(§2) The IC50 values of the compounds of the present disclosure (including the compounds in Table 1, Table 2, and Examples) were determined using the CellTiter-Meiluncell Luminescent Cell Viability Assay Kit from Dalian Meilun Biotech Co., Ltd. The detailed procedure is as follows: Tumor cells were seeded in 96-well cell culture plates at the densities specified in Table 4. On the following day, the test compounds of the present disclosure were subjected to serial dilution. […] Subsequently, 0.5 µL of the test compound dilution was transferred into the 96-well plate containing the cells, with each well containing 100 µL of cell culture medium. […] Into the 96-well plate, the diluted test compounds and corresponding detection reagents were added, resulting in final test compound concentrations of 500 nM and 10 nM, respectively. The experimental procedure is described below using the diluted 2 µM test compound as an example.
(§3) 0.5 µL of the aforementioned diluted compound of the present disclosure (including the compounds in Table 1, Table 2, and Examples) was added to the seeded cells in 100 µL of medium, yielding a final test compound concentration of 10 nM. After the cells were treated with the compounds of the present disclosure for a specified period, the cell viability assay reagent was added to the culture medium according to the kit's instructions to determine cell viability. […] All controls were treated using the same procedure as the compounds of the present disclosure. […] Seeding protocol and treatment time for tumor cells

[2] = test system: MM.1S; assay: as above; format: cell-based; settings: for inhibition at 0.01 µM / inhibition at 0.5 µM: Homo sapiens, MM1.S; for inhibition at 0.01 µM: read-out: Inhibition Rate at 10 nM (%); for inhibition at 0.5 µM: read-out: Inhibition Rate at 500 nM (%)
Experimental: as §1, §2, §3

[3] = test system: MV-4-11; assay: as above; format: cell-based; settings: Homo sapiens, 96 hours; for inhibition at 0.01 µM: MV4-11, 10 nM, read-out: Inhibition Rate at 10 nM (%); for inhibition at 0.5 µM: MV4-11, 500 nM, read-out: Inhibition Rate at 500 nM (%)
Experimental: as §1, §2, §3

[4] = biological target: T1, human Cereblon WT GST-tagged protein (Homo sapiens, UniProt Q96SW2); assay: CRBN-binding affinity, HTRF (CEREBLON BINDING kit); settings: for inhibition at 0.5 µM: read-out: Inhibition Rate at 0.5 µM (%); for inhibition at 2 µM: read-out: Inhibition Rate at 2 µM (%)
T1 construct: purchased CISBIO 64BDCRBNPEH
Summary of the method: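 Compounds are serially diluted in diluent #9 (1X) and added at final 2 µM and 0.5 µM. GST-tagged wild-type Cereblon is added next, followed by premixed thalidomide-red reagent and anti-GST Eu antibody, and HTRF signal is measured.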

[5] = Table I-8, SMARCA2/4 inhibitors

T1 sequence (Q96SW2 whole entry): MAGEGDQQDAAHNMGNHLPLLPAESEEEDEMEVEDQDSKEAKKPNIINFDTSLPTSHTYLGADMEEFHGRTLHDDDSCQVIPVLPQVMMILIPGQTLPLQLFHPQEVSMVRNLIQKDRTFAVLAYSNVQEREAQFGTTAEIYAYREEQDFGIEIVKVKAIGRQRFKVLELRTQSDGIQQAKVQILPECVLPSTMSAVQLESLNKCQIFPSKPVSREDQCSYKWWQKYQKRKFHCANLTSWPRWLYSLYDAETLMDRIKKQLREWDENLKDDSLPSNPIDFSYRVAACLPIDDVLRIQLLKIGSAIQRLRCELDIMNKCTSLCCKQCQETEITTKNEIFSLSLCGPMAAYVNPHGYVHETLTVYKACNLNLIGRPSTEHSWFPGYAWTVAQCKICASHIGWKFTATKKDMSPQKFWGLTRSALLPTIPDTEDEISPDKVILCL

| inhibition at 0.5 µM [4] | inhibition at 2 µM [4] | Compound | inhibition at 0.01 µM ([3]; Table I-3, EGFR inhibitors) | inhibition at 0.5 µM ([3]; Table I-3, EGFR inhibitors) | also measured |
| --- | --- | --- | --- | --- | --- |
| 80 to 100% | 80 to 100% | COc1cc(N2CCC(N3CCN(Cc4ccc5c(c4)CN(C4CCC(=O)NC4=O)C5=S)CC3)CC2)c(C)cc1Nc1ncc(Br)c(Nc2ccc3nccnc3c2P(C)(C)=O)n1 (stereo not drawn) [GT-08755, 3-(5-((4-(1-(4-((5-bromo-4-((5-(dimethylphosphoryl)quinoxalin-6-yl)amino)pyrimidin-2-yl)amino)-5-methoxy-2-methylphenyl)piperidin-4-yl)piperazin-1-yl)methyl)-1-thioxoisoindolin-2-yl)piperidine-2,6-dione] | 20 to 30% | 70 to 80% |  |
| 30 to 40% | 80 to 100% | COC1CCN(c2nccc(Nc3cc4c(cn3)c(N3CCN(Cc5ccc6c(c5)CN(C5CCC(=O)NC5=O)C6=S)CC3)nn4C(C)C)n2)CC1 (stereo not drawn) [GT-08756, 3-(5-((4-(1-isopropyl-6-((2-(4-methoxypiperidin-1-yl)pyrimidin-4-yl)amino)-1H-pyrazolo[4,3-c]pyridin-3-yl)piperazin-1-yl)methyl)-1-thioxoisoindolin-2-yl)piperidine-2,6-dione] | 5 to 10% | 40 to 50% |  |
| 53 to 60% | 60 to 80% | COc1cc(N2CCC(N(C)Cc3cccc4c3CN(C3CCC(=O)NC3=O)C4=S)CC2)c(C)cc1Nc1ncc(Br)c(Nc2ccc3nccnc3c2P(C)(C)=O)n1 (stereo not drawn) [GT-08758, 3-(4-(((1-(4-((5-bromo-4-((5-(dimethylphosphoryl)quinoxalin-6-yl)amino)pyrimidin-2-yl)amino)-5-methoxy-2-methylphenyl)piperidin-4-yl)(methyl)amino)methyl)-1-thioxoisoindolin-2-yl)piperidine-2,6-dione] | 10 to 20% | 60 to 70% |  |
| 53 to 60% | 80 to 100% | Nc1nnc(-c2ccccc2O)cc1N1CCN(Cc2cccc3c2CN(C2CCC(=O)NC2=O)C3=S)CC1 (stereo not drawn) [GT-08786, 3-(4-((4-(3-amino-6-(2-hydroxyphenyl)pyridazin-4-yl)piperazin-1-yl)methyl)-1-thioxoisoindolin-2-yl)piperidine-2,6-dione] |  |  | inhibition at 0.01 µM [3, 5]: 10 to 15%; inhibition at 0.5 µM [3, 5]: 40 to 50% |
| 40 to 53% | 53 to 60% | Cc1ccsc1C(=O)n1nc(Nc2ccc(S(=O)(=O)N3CCN(Cc4cccc5c4CN(C4CCC(=O)NC4=O)C5=S)CC3)cc2)nc1N (stereo not drawn) [GT-08797, 3-(4-((4-((4-((5-amino-1-(3-methylthiophene-2-carbonyl)-1H-1,2,4-triazol-3-yl)amino)phenyl)sulfony 1)piperazin-1-yl)methyl)-1-thioxoisoindolin-2-yl)piperidine-2,6-dione] |  |  | inhibition at 0.01 µM ([3]; Table I-13, CDK2 inhibitors): 5 to 10%; inhibition at 0.5 µM ([3]; Table I-13, CDK2 inhibitors): 60 to 70% |
| 53 to 60% | 80 to 100% | CC1(C)CCC(c2ccc(Cl)cc2)=C(CN2CCN(c3ccc(C(=O)NS(=O)(=O)c4ccc(N[C@H](CCN5CCN(Cc6ccc7c(c6)CN(C6CCC(=O)NC6=O)C7=S)CC5)CSc5ccccc5)c(S(=O)(=O)C(F)(F)F)c4)cc3)CC2)C1 (stereo partly drawn) [GT-09415, 4-(4-((4'-chloro-4,4-dimethyl-3,4,5,6-tetrahydro-[1,1'-biphenyl]-2-yl)methyl)piperazin-1-yl)-N-((4-(((2R)-4-(4-((2-(2,6-dioxopiperidin-3-yl)-1-thioxoisoindolin-5-yl)methyl)piperazin-1-yl)-1-(phenylthio)butan-2-yl)amino)-3-((trifluoromethyl)sulfonyl)phenyl)sulfonyl)benzamide] |  |  | inhibition at 0.01 µM ([1]; Table I-15, BCL-2 inhibitors): 30 to 40%; inhibition at 0.5 µM ([1]; Table I-15, BCL-2 inhibitors): 80 to 100% |

Second part, the compound before the results:

| Compound | inhibition at 0.5 µM [4] | inhibition at 2 µM [4] | inhibition at 0.01 µM ([3]; Table I-3, EGFR inhibitors) | inhibition at 0.5 µM ([3]; Table I-3, EGFR inhibitors) | also measured |
| --- | --- | --- | --- | --- | --- |
| CC1(C)CCC(CN2CCN(c3ccc(C(=O)NS(=O)(=O)c4ccc(NCC5CCOCC5)c([N+](=O)[O-])c4)c(Oc4cnc5[nH]ccc5c4)c3)CC2)=C(c2ccc(Cl)cc2)C1 [ABT-199, Venetoclax, reference compound] |  |  |  |  | inhibition at 0.01 µM ([1]; Table I-15, BCL-2 inhibitors): 5 to 10%; inhibition at 0.5 µM ([1]; Table I-15, BCL-2 inhibitors): 5 to 10% |
| CNC(=O)c1ccc(Nc2ncc(C(F)(F)F)c(NCc3nccnc3N(C)S(C)(=O)=O)n2)cc1 [Defactinib, reference compound] |  |  |  |  | inhibition at 0.01 µM ([2]; MM.1S, 10 nM, 96 hours, Table I-12, FAK inhibitors): 10 to 20%; inhibition at 0.5 µM ([2]; MM.1S, 500 nM, 96 hours, Table I-12, FAK inhibitors): 5 to 10%; inhibition at 0.01 µM ([3]; Table I-12, FAK inhibitors): 0 to 5%; inhibition at 0.5 µM ([3]; Table I-12, FAK inhibitors): 50 to 60%; inhibition at 0.01 µM ([1]; Table I-12, FAK inhibitors): 0 to 5%; inhibition at 0.5 µM ([1]; Table I-12, FAK inhibitors): 5 to 10% |
| Cn1ncc(-c2nc(NC3CCN(Cc4ccc5c(c4)C(=S)N(C4CCC(=O)NC4=O)C5)CC3)ncc2Cl)c1CC1CC1 (stereo not drawn) [GT-08751, 3-(6-((4-((5-chloro-4-(5-(cyclopropylmethyl)-1-methyl-1H-pyrazol-4-yl)pyrimidin-2-yl)amino)piperidin-1-yl)methyl)-1-thioxoisoindolin-2-yl)piperidine-2,6-dione] | 40 to 53% | 80 to 100% |  |  | inhibition at 0.01 µM ([3]; Table I-7, CDK9 inhibitors): 10 to 20%; inhibition at 0.5 µM ([3]; Table I-7, CDK9 inhibitors): 60 to 70% |
| COc1cc(N2CCC(N(C)Cc3ccc4c(c3)CN(C3CCC(=O)NC3=O)C4=S)CC2)c(C)cc1Nc1ncc(Br)c(Nc2ccc3nccnc3c2P(C)(C)=O)n1 (stereo not drawn) [GT-08754, 3-(5-(((1-(4-((5-bromo-4-((5-(dimethylphosphoryl)quinoxalin-6-yl)amino)pyrimidin-2-yl)amino)-5-methoxy-2-methylphenyl)piperidin-4-yl)(methyl)amino)methyl)-1-thioxoisoindolin-2-yl)piperidine-2,6-dione] | 80 to 100% | 80 to 100% | 10 to 20% | 70 to 80% |  |
| O=C1CCC(N2Cc3c(CN4CCN(c5ccc(-c6cc(F)c7c(c6)C(=O)N(C(C(=O)Nc6nccs6)c6ncn8c6CCC8)C7)cc5)CC4)cccc3C2=S)C(=O)N1 (stereo not drawn) [GT-09429, 2-(6,7-dihydro-5H-pyrrolo[1,2-c]imidazol-1-yl)-2-(6-(4-(4-((2-(2,6-dioxopiperidin-3-yl)-1-thioxoisoindolin-4-yl)methyl)piperazin-1-yl)phenyl)-4-fluoro-1-oxoisoindolin-2-yl)-N-(thiazol-2-yl)acetamide] |  |  |  |  | inhibition at 0.01 µM ([1]; Table I-3, EGFR inhibitors): 10 to 20%; inhibition at 0.5 µM ([1]; Table I-3, EGFR inhibitors): 70 to 80% |
| Nc1cccc2c1CN(C1CCC(=O)NC1=O)C2=O (stereo not drawn) [Lenalidomide, lenalidomide, reference compound] |  |  |  |  | inhibition at 0.5 µM ([2]; 96 h): 30 to 35%; Inhibition Rate at 10 nM (%) ([2]; MM.1S, 10 nM, 96 hours, Table I-16, compounds of Formula (II)): ln2 |
| CN(C)C(=O)c1cc2cnc(Nc3ccc(N4CCNCC4)cn3)nc2n1C1CCCC1 [Ribociclib, reference compound] |  |  |  |  | inhibition at 0.01 µM ([2]; MM.1S, 10 nM, 96 hours, Table I-9, CDK4/6 inhibitors): 10 to 20%; inhibition at 0.5 µM ([2]; MM.1S, 500 nM, 96 hours, Table I-9, CDK4/6 inhibitors): 10 to 20%; inhibition at 0.01 µM ([3]; Table I-9, CDK4/6 inhibitors): 5 to 10%; inhibition at 0.5 µM ([3]; Table I-9, CDK4/6 inhibitors): 20 to 30% |
